ChEMBL document CHEMBL4033705, “Screening for bioactive natural products from a 67-compound library of Glycyrrhiza inflata” (Bioorg Med Chem, 2017)
pIC50: −log10 of the molar value.

Experiments:
RAW264.7 = assay: Antiinflammatory activity in mouse RAW264.7 cells assessed as inhibition of LPS-induced NO production at 10 uM after 24 hrs by Griess reagent based assay relative to control; assay type: functional; conditions: RAW264.7, 24 h
[1] = biological target: Mushroom tyrosinase (Agaricus bisporus) (UniProt O42713+Q00024+C7FF04+C7FF05); assay: Inhibition of mushroom tyrosinase at 10 uM using L-tyrosine as substrate incubated for 15 mins followed by substrate addition relative to control
MCF7 [2] = assay: Growth inhibition of human MCF7 cells at 10 uM after 24 hrs by MTS assay relative to control; assay type: functional; conditions: MCF7, 24 h, read-out: GI
[3] = biological target: T1, Tyrosine-protein phosphatase non-receptor type 1 (Homo sapiens) (UniProt P18031); assay: Inhibition of recombinant human PTP1B using p-nitrophenyl phosphate as substrate at 10 uM after 30 mins relative to control
T1 sequence (whole entry): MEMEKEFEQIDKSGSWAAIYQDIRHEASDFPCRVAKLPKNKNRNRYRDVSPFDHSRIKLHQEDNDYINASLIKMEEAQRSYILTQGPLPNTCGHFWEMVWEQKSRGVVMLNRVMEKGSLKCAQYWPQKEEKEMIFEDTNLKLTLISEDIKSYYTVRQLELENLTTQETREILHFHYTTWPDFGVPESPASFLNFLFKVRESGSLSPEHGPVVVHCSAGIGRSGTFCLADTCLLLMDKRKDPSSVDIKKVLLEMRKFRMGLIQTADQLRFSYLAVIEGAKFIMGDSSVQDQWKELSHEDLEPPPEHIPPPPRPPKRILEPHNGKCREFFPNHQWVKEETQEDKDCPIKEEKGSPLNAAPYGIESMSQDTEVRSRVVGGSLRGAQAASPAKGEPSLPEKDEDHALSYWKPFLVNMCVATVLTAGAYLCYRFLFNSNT

[4] = Growth inhibition of human LO2 cells at 10 uM after 24 hrs by MTS assay relative to control; assay type: cell-based, L02; conditions: LO2 cells, read-out: GI
SW480 [5] = assay: Growth inhibition of human SW480 cells at 10 uM after 24 hrs by MTS assay relative to control; assay type: functional; conditions: SW480, 24 h, read-out: GI
HepG2 = assay: Growth inhibition of human HepG2 cells at 10 uM after 24 hrs by MTS assay relative to control; assay type: functional; conditions: HepG2, 24 h, read-out: GI
SW480 [6] = assay: Cytotoxicity against human SW480 cells assessed as reduction in cell viability after 24 hrs by MTS assay; assay type: functional, cell-based; conditions: SW480, 24 h
Homo sapiens = species on record: Homo sapiens; assay: Inhibition of LPS-induced NF-kappaB transcription (unknown origin) expressed in human SW480 cells at 10 uM by luciferase reporter gene assay; assay type: cell-based
MCF7 [7] = assay: Cytotoxicity against human MCF7 cells assessed as reduction in cell viability after 24 hrs by MTS assay; assay type: functional, cell-based; conditions: MCF7, 24 h
[8] = Growth inhibition of human HEK293T cells at 10 uM after 24 hrs by MTS assay relative to control; assay type: cell-based, HEK-293T; conditions: HEK293T cells, read-out: GI
[9] = biological target: T2, Tyrosine-protein phosphatase non-receptor type 1 (Homo sapiens, UniProt P18031); assay: Inhibition of recombinant human PTP1B using p-nitrophenyl phosphate as substrate after 30 mins
T2 sequence (P18031 whole entry): T1 sequence (whole entry)

CC(C)=CCc1c(O)c(CC=C(C)C)c2occ(-c3ccc(O)cc3)c(=O)c2c1O
inhibition at 10 µM (RAW264.7): 22%
inhibition [1]: 7%
inhibition of growth at 10 µM (MCF7 [2]): 73%
inhibition [3]: 51%
inhibition at 24 h, 10 µM [4]: 12%
inhibition of growth at 10 µM (SW480 [5]): 81%
inhibition of growth at 10 µM (HepG2): 30%
pIC50 (SW480 [6]): 5.09
inhibition (Homo sapiens): 26%
pIC50 (MCF7 [7]): 5.07
inhibition at 24 h, 10 µM [8]: 49%

COc1cc(O)ccc1/C=C/C(=O)c1ccc(O)cc1 [ECHINATIN]
inhibition at 10 µM (RAW264.7): 26%
inhibition [1]: 16%
inhibition of growth at 10 µM (MCF7 [2]): 0%
inhibition [3]: 75%
inhibition of growth at 10 µM (SW480 [5]): 24%
inhibition of growth at 10 µM (HepG2): 6%
inhibition (Homo sapiens): 0%

COc1cc([C@H]2COc3cc(O)ccc3C2)ccc1O
inhibition at 10 µM (RAW264.7): 23%
inhibition [1]: 6%
inhibition of growth at 10 µM (MCF7 [2]): 14%
inhibition [3]: 2%
inhibition of growth at 10 µM (SW480 [5]): 24%
inhibition of growth at 10 µM (HepG2): 3%
inhibition (Homo sapiens): 0%

CC1(C)C=Cc2c(ccc(-c3coc4cc(O)cc(O)c4c3=O)c2O)O1 [LICOISOFLAVONE B]
inhibition at 10 µM (RAW264.7): 10%
inhibition [1]: 14%
inhibition of growth at 10 µM (MCF7 [2]): 14%
inhibition [3]: 69%
inhibition of growth at 10 µM (SW480 [5]): 13%
inhibition of growth at 10 µM (HepG2): 13 to 14%
inhibition (Homo sapiens): 4%

CC1(C)C(=O)CC[C@]2(C)[C@H]3C(=O)C=C4[C@@H]5C[C@@](C)(C(=O)O)CC[C@]5(C)CC[C@@]4(C)[C@]3(C)[C@@H](O)C[C@@H]12
inhibition at 10 µM (RAW264.7): 6%
inhibition [1]: 5%
inhibition of growth at 10 µM (MCF7 [2]): 25%
inhibition [3]: 1%
inhibition of growth at 10 µM (SW480 [5]): 48%
inhibition of growth at 10 µM (HepG2): 1%
inhibition (Homo sapiens): 28%

CC(C)=CCc1c(O)ccc2c1O[C@H](c1ccc3c(c1)C=CC(C)(C)O3)CC2=O
inhibition at 10 µM (RAW264.7): 24%
inhibition [1]: 15%
inhibition of growth at 10 µM (MCF7 [2]): 75%
inhibition [3]: 50%
inhibition at 24 h, 10 µM [4]: 2%
inhibition of growth at 10 µM (SW480 [5]): 72%
inhibition of growth at 10 µM (HepG2): 14%
pIC50 (SW480 [6]): 5.01
inhibition (Homo sapiens): 20%
pIC50 (MCF7 [7]): 4.89
inhibition at 24 h, 10 µM [8]: 25%

CC(C)=CCc1c(O)cc(O)c2c(=O)c(-c3ccc(O)cc3O)coc12
inhibition at 10 µM (RAW264.7): 9%
inhibition [1]: 17%
inhibition of growth at 10 µM (MCF7 [2]): 31%
inhibition [3]: 34%
inhibition of growth at 10 µM (SW480 [5]): 13%
inhibition of growth at 10 µM (HepG2): 5%
inhibition (Homo sapiens): 8%

CC(C)=CCc1cc(-c2coc3cc(O)cc(O)c3c2=O)cc(O)c1O [GLYCYRRHISOFLAVONE]
inhibition at 10 µM (RAW264.7): 3%
inhibition [1]: 8%
inhibition of growth at 10 µM (MCF7 [2]): 15%
inhibition [3]: 52%
inhibition of growth at 10 µM (SW480 [5]): 18%
inhibition of growth at 10 µM (HepG2): 0%
inhibition (Homo sapiens): 8%

CC(C)=CCc1cc2c(=O)cc(-c3ccc(O)cc3)oc2cc1O [LICOFLAVANONE A]
inhibition at 10 µM (RAW264.7): 11%
inhibition [1]: 17%
inhibition of growth at 10 µM (MCF7 [2]): 0%
inhibition [3]: 79%
inhibition of growth at 10 µM (SW480 [5]): 30%
inhibition of growth at 10 µM (HepG2): 5%
inhibition (Homo sapiens): 7%

CC(C)=CCc1cc(-c2coc3c(CC=C(C)C)c(O)cc(O)c3c2=O)cc(O)c1O
inhibition at 10 µM (RAW264.7): 0%
inhibition [1]: 2%
inhibition of growth at 10 µM (MCF7 [2]): 3%
inhibition [3]: 92%
inhibition of growth at 10 µM (SW480 [5]): 55%
inhibition of growth at 10 µM (HepG2): 0%
inhibition (Homo sapiens): 14%
pIC50 [9]: 5.35

COc1ccc(-c2coc3cc(O)ccc3c2=O)c(O)c1 [XENOGNOSIN B]
inhibition at 10 µM (RAW264.7): 1%
inhibition [1]: 11%
inhibition of growth at 10 µM (MCF7 [2]): 1%
inhibition [3]: 47%
inhibition of growth at 10 µM (SW480 [5]): 13%
inhibition of growth at 10 µM (HepG2): 0%
inhibition (Homo sapiens): 4%

CC1(C)C=Cc2c(ccc(-c3coc4cc(O)ccc4c3=O)c2O)O1 [GLABRONE]
inhibition at 10 µM (RAW264.7): 5%
inhibition [1]: 3%
inhibition of growth at 10 µM (MCF7 [2]): 12%
inhibition [3]: 69%
inhibition of growth at 10 µM (SW480 [5]): 50%
inhibition of growth at 10 µM (HepG2): 16%
inhibition (Homo sapiens): 15%
